In article PMC7329864, “Role of water in cyclooxygenase catalysis and design of anti-inflammatory agents targeting two sites of the enzyme” (Scientific Reports, 2020):
Read-outs that look alike come from different tables or passages of the source.

Experiments:
Swiss albino mice = assay: Formalin induced pain (flinchings), analgesic activity and mechanistic pretreatments; format: in vivo
Protocol: Since it is known to produce biphasic pain response—the neurogenic pain and the inflammatory phase, 2% formalin injection was given in the right hind paw of the animals (20 µL) and the response was quantified by counting the number of flinching after 30 min of the compound 1 treatment. The inflammatory phase has been reported in the current investigation since the cyclooxygenase inhibitors are known to ameliorate the latter phase. The involvement of cyclooxygenase and lipooxygenase pathways was studied by pretreatment with substance P and nitric oxide pathway was studied by pretreatment with L-arginine and L-NAME as previously described. Anti-inflammatory activity was examined by using carageenan induced paw edema as per the previous report.
Swiss albino mice of either sex (25–35 g) were used for determining the analgesic and anti-inflammatory activity of the compounds. The animals were maintained at 22 ± 2 °C under 12 h light/12 h dark cycle with free supply of food and water. The study was approved by the IAEC of Guru Nanak Dev University, Amritsar, Punjab, India. A total of six groups of animals with 5 animals in each group were used. The experimental procedure as described in our previous report[52],[57] was used for studying the analgesic and anti-inflammatory activity of the compounds. All the treatments were given intraperitoneally (i.p.).
Mechanistic studies. Three groups of mice with 5 animals in each group were taken for exploring the inhibition of COX and LOX and modulation of nitric oxide pathway. For COX and LOX pathways, the animals were pretreated with substance P, 30 min before administering 1. For nitric oxide pathway, animals were pretreated with nitric oxide precursor, L-arginine and NOS inhibitor, L-NAME, 30 min before administering 1. The details of the protocols are described in previous reports[52],[57].

wt COX-2 = biological target: T1, wt COX-2 (Homo sapiens, UniProt P35354); assay: COX inhibitory enzyme immunoassay (COX-2); format: biochemical
T1 construct: purchased Cayman Chemical Co. item no; 560131
T1 sequence (P35354 18-604): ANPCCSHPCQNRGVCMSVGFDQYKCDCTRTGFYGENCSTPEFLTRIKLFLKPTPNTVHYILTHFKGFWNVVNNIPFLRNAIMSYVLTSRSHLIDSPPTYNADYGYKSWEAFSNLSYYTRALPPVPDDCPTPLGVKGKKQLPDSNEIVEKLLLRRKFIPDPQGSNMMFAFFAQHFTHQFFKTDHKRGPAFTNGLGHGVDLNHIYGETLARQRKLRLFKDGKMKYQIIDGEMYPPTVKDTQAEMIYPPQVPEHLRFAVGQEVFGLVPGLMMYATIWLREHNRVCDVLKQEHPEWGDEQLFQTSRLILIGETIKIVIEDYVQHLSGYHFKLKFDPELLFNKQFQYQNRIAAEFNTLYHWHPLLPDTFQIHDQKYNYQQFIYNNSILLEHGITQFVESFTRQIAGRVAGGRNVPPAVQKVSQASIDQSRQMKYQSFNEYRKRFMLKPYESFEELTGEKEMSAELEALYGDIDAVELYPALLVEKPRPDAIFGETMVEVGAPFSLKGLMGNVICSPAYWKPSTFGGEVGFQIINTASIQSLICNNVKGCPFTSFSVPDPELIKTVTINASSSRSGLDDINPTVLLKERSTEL
Protocol: All the compounds of Fig. 9 were screened for COX-1/2 inhibitory activity in triplicate at 10^–4–10^–8 M concentration by performing enzyme immunoassays. The activity of the compounds was quantified in terms of amount of prostaglandins produced by the enzymes in the presence of different concentrations of the compound.
For studying the COX-1, COX-2 inhibitory activities of the compounds, various reagents were prepared as per the protocol of the assays. The compounds were screened in triplicate at 10^–4–10^–8 M concentration using the procedure as described in the previous report.

Acute toxicity studies = format: in vivo
Protocol: (§1) Acute toxicity studies of 1 were carried out at 3 dose levels of 50 mg Kg^−1, 300 mg Kg^−1 and 2000 mg Kg^−1 by periodic monitoring for the first 24 h and daily monitoring for 14 days[56]. […] A few jumping movements were also observed. However, all these behaviours subsided after 60 min. […] Therefore, complying with the design and the results of in vitro studies, the in vivo experiments were gestured with the emergence of a new category of anti-inflammatory agents.
Acute Toxicity Studies[56]. Four groups of animals with three animals per group were taken. The first group was administered the vehicle and served as the control group, the second, third and the fourth groups were treated with 1 at doses of 50 mg Kg^−1, 300 mg Kg^−1 and 2000 mg Kg^−1, respectively. All the treatments were administered after 4 h of fasting. Thereafter, the animals were observed continuously for the first four hours and periodically for 24 h. After 14 days, one animal each in control and highest dose of 1 (2000 mg Kg^−1) was sacrificed and histological studies were conducted using H and E staining.
[56] OECD Guideline for testing of chemicals, 2001. Guideline 423: acute oral toxicity- acute toxic class method, 2001.

[1] = In-vivo pharmacokinetic studies
Protocol: as §1
In-vivo Pharmacokinetic studies were performed as per the previously reported protocol.

SMILES: O=C1NC(=O)C(=Cc2cn(CCCCCCn3c4ccccc4c(=O)c4ccccc43)c3ccccc23)C(=O)N1 [Compound 1]
- reversal of formalin induced analgesia (Swiss albino mice): 90%
- number of flinchings in neurogenic and inflammatory phase of formalin induced pain (Swiss albino mice; 10 mg kg^−1, i.p., 2% formalin 30 min after treatment, comparable to indomethacin): significant decrease
- modulation (attenuation) of analgesic effect by L-NAME pretreatment (Swiss albino mice; L-NAME (NOS inhibitor) 30 min before compound): did not
- modulation of analgesic effect by L-arginine pretreatment (Swiss albino mice; L-arginine (NO precursor) 30 min before compound): attenuated the analgesic effect of 1 partially
- modulation of analgesic effect by Substance P pretreatment (Swiss albino mice; Substance P 30 min before compound, complete reversal not evident): attenuated the analgesic effect
- IC50 (wt COX-2; enzyme immunoassay, screened at 10^–4–10^–8 M, average of 3 experiments, SD ± 0.5 µM): 60 nM
- SI (IC50(COX-1)/IC50 (COX-2) (wt COX-2; selectivity index COX-1/COX-2): 1,000
- histological examination of liver, kidney and myocardium (Acute toxicity studies; 2000 mg Kg^−1, after 14 days, H and E staining, a few areas of congestion in myocardium and kidney): grossly unremarkable
- mortality in acute toxicity study (Acute toxicity studies; 50, 300 and 2000 mg Kg^−1, oral, 14 days of observation): No mortality
- behavioural observations in acute toxicity study (Acute toxicity studies; first 60 min after oral administration, subsided after 60 min): excessive licking, sniffing, grooming and restless movements
- Cmax ([1]; Animal 1): 3150 nM
- Tmax ([1]; Animal 1): 0.5 h
- AUC(0-t) ([1]; Animal 1, read-out: AUC(0–1440 min) (converted)): 21.4 µM·h
- half-life ([1]; Animal 1, read-out: T1/2): 11.2 h
- Cmax ([1]; Animal 2): 2860 nM
- Tmax ([1]; Animal 2): 0.25 h
- AUC(0-t) ([1]; Animal 2, read-out: AUC(0–1440 min) (converted)): 19.7 µM·h
- half-life ([1]; Animal 2, read-out: T1/2): 6.96 h
- Cmax ([1]; Animal 3): 2600 nM
- Tmax ([1]; Animal 3): 0.5 h
- AUC(0-t) ([1]; Animal 3, read-out: AUC(0–1440 min) (converted)): 20.2 µM·h
- half-life ([1]; Animal 3, read-out: T1/2): 8.68 h
- Tmax ([1]; Mean): 0.417 h
- AUC(0-t) ([1]; Mean, read-out: AUC(0–1440 min) (converted)): 20.4 µM·h
- half-life ([1]; Mean, read-out: T1/2): 8.95 h
- half-life ([1]; read-out: half life (T1/2) (converted)): ~9 h
